Assay results: patent US7202265B2, “Indolinone combinatorial libraries and related products and methods for the treatment of disease” (Sugen, Inc., priority 1997, dated 2007)

What follows are compounds tested on human MET (assay: MET biochemical kinase assay). Conditions: not given.
Parameters: concentration or dose not given beside the values
Method in brief: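 MET captured from cell lysates onto plates coated with goat anti-rabbit Fc plus rabbit polyclonal anti-MET cytoplasmic-domain antibody; after washing, compounds added with kinase buffer containing ATP and divalent metal ions. Receptor tyrosine phosphorylation detected by HRP-conjugated anti-phosphotyrosine antibody, TMB colorimetric read-out.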
With `COc1ccc2[nH]cc(C=C3C(=O)Nc4ccc(CCCl)cc43)c2c1` [10731/G09] the “Met Kinase % Inhibition” value was 4.4%.
`O=C1Nc2ccc(CCCl)cc2C1=Cc1cccs1` [10717/G03] was tested, and the “Met Kinase % Inhibition” value was 4.5%.
For `Cc1cc(C=C2C(=O)Nc3c(Br)cc(Br)cc32)sc1C` [10721/A04], the “Met Kinase % Inhibition” value was 85.0%.
`CNS(=O)(=O)c1ccc2c(c1)C(=Cc1cc3ccccc3nc1Cl)C(=O)N2` [10730/D08] was tested, and the “Met Kinase % Inhibition” value was −13.6%.
With `O=C1Nc2ccc(S(=O)(=O)Nc3ccc(C(F)(F)F)cc3)cc2C1=Cc1c(Br)cnn1-c1ccc(Cl)cc1` [10725/E10] the “Met Kinase % Inhibition” value was −4.7%.
`CNS(=O)(=O)c1ccc2c(c1)C(=Cc1cc(C(C)(C)C)cc(C(C)(C)C)c1O)C(=O)N2` [10723/D11] was tested, and the “Met Kinase % Inhibition” value was 42.0%.
With `O=C1Nc2ccc(CCCl)cc2C1=Cc1ccccc1Br` [10723/G07] the “Met Kinase % Inhibition” value was 43.0%.
For `CNS(=O)(=O)c1ccc2c(c1)C(=Cc1ccc(C(F)(F)F)cc1)C(=O)N2` [10722/D11], the “Met Kinase % Inhibition” value was 41.0%.
For `COc1ccc(C=C2C(=O)Nc3ccc(S(=O)(=O)N4CCOCC4)cc32)c(OC)c1` [10719/F04], the “Met Kinase % Inhibition” value was 3.3%.
`O=C1Nc2ccc(S(=O)(=O)Nc3ccc(C(F)(F)F)cc3)cc2C1=Cc1ccc(C(=O)O)cc1` [10722/E05] was tested, and the “Met Kinase % Inhibition” value was 73.0%.
With `CCOC(=O)c1cc(C=C2C(=O)Nc3ccc(CCCl)cc32)oc1C` [10718/G06] the “Met Kinase % Inhibition” value was 61.0%.
For `O=C1Nc2ccc(S(=O)(=O)Nc3ccc(C(F)(F)F)cc3)cc2C1=Cc1ccc(N2CCCC2)cc1` [10729/E10], the “Met Kinase % Inhibition” value was 7.5%.
`Cc1c(Br)ccc2c1C(=Cc1cccn1C)C(=O)N2` [10717/C04] was tested, and the “Met Kinase % Inhibition” value was 25.0%.
`Cc1c(Br)ccc2c1C(=Cc1cccc([N+](=O)[O-])c1)C(=O)N2` [10719/C10] was tested, and the “Met Kinase % Inhibition” value was 7.9%.
With `O=C1Nc2ccc(I)cc2C1=Cc1cc(C(F)(F)F)ccc1F` [10728/B08] the “Met Kinase % Inhibition” value was 77.0%.
With `COc1cc(C=C2C(=O)Nc3ccc(S(=O)(=O)N4CCOCC4)cc32)cc(OC)c1OC` [10730/F04] the “Met Kinase % Inhibition” value was 36.0%.
For `O=C1Nc2ccc(S(=O)(=O)Nc3ccc(C(F)(F)F)cc3)cc2C1=Cc1ccc(C(F)(F)F)cc1` [10722/E11], the “Met Kinase % Inhibition” value was 84.0%.
For `Cc1csc2sc(C=C3C(=O)Nc4ccc(I)cc43)c(C)c12` [10724/B11], the “Met Kinase % Inhibition” value was 43.0%.
In the case of `CC(C)(C)c1cc(C=C2C(=O)Nc3c(Br)cc(Br)cc32)ccc1OCc1ccccc1` [10732/A06], the “Met Kinase % Inhibition” value is reported as 5.7%.
In the case of `COc1cc(OC)c(C=C2C(=O)Nc3ccc(S(=O)(=O)Nc4ccc(C(F)(F)F)cc4)cc32)c(OC)c1` [10719/E06], the “Met Kinase % Inhibition” value is reported as −4.5%.
With `COc1ccc(OC)c(C=C2C(=O)Nc3ccc(S(=O)(=O)Nc4ccc(C(F)(F)F)cc4)cc32)c1` [10728/E02] the “Met Kinase % Inhibition” value was 5.4%.
With `COc1cccc(OC)c1C=C1C(=O)Nc2ccc(CCCl)cc21` [10728/G03] the “Met Kinase % Inhibition” value was 8.8%.
In the case of `O=C1Nc2ccc(I)cc2C1=Cc1ccc(C(F)(F)F)cc1` [10722/B11], the “Met Kinase % Inhibition” value is reported as 83.0%.
With `O=C1Nc2ccc(S(=O)(=O)Nc3ccc(C(F)(F)F)cc3)cc2C1=Cc1cc(O)c2c(c1O)CCCC2` [10726/E07] the “Met Kinase % Inhibition” value was 84.0%.
In the case of `O=C1Nc2c(Br)cc(Br)cc2C1=Cc1ccccc1Sc1ccc(Cl)cc1` [10727/A05], the “Met Kinase % Inhibition” value is reported as 29.0%.
For `CN(C)c1ccc(C=C2C(=O)Nc3ccc(S(=O)(=O)Nc4ccc(C(F)(F)F)cc4)cc32)cc1` [10719/E08], the “Met Kinase % Inhibition” value was 80.0%.
With `Cc1c(Br)ccc2c1C(=Cc1cc(C(C)(C)C)cc(C(C)(C)C)c1O)C(=O)N2` [10723/C11] the “Met Kinase % Inhibition” value was 47.0%.
With `O=C1Nc2ccc(S(=O)(=O)Nc3ccc(C(F)(F)F)cc3)cc2C1=Cc1c[nH]c(=O)[nH]c1=O` [10731/E08] the “Met Kinase % Inhibition” value was 59.0%.
With `CNS(=O)(=O)c1ccc2c(c1)C(=Cc1cc(C(C)C)c(O)c(C(C)C)c1)C(=O)N2` [10724/D06] the “Met Kinase % Inhibition” value was 23.0%.
With `O=C1Nc2ccc(S(=O)(=O)N3CCOCC3)cc2C1=Cc1cc(O)c(O)c(Br)c1` [10723/F04] the “Met Kinase % Inhibition” value was 94.0%.
For `COc1cc(OC)c(OC)cc1C=C1C(=O)Nc2ccc(S(=O)(=O)N3CCOCC3)cc21` [10730/F03], the “Met Kinase % Inhibition” value was −0.6%.
In the case of `CC(C)(C)c1cc(C=C2C(=O)Nc3ccc(CCCl)cc32)cc(C(C)(C)C)c1O` [10721/G11], the “Met Kinase % Inhibition” value is reported as −0.0%.
With `CC(C)(C)c1cc(C=C2C(=O)Nc3c(Br)cc(Br)cc32)c(O)c(C(C)(C)C)c1` [10723/A11] the “Met Kinase % Inhibition” value was 60.0%.
For `O=C1Nc2c(Br)cc(Br)cc2C1=Cc1coc2ccc(Cl)cc2c1=O` [10730/A06], the “Met Kinase % Inhibition” value was 61.0%.
With `N#Cc1ccc(C=C2C(=O)Nc3ccc(S(=O)(=O)N4CCOCC4)cc32)cc1` [10727/F09] the “Met Kinase % Inhibition” value was 9.3%.

These compounds were tested against T1, FLK-1 receptor (Mus musculus, UniProt P35918) (assay: FLK-1 ELISA (catalytic activity of the FLK-1 receptor in FLK-1/NIH3T3 cells)). Conditions: not given.
T1 construct: expressed in transfected cells; host or cells: NIH3T3 C7#3 (FLK-1/NIH3T3)
T1 sequence (P35918 20-1345): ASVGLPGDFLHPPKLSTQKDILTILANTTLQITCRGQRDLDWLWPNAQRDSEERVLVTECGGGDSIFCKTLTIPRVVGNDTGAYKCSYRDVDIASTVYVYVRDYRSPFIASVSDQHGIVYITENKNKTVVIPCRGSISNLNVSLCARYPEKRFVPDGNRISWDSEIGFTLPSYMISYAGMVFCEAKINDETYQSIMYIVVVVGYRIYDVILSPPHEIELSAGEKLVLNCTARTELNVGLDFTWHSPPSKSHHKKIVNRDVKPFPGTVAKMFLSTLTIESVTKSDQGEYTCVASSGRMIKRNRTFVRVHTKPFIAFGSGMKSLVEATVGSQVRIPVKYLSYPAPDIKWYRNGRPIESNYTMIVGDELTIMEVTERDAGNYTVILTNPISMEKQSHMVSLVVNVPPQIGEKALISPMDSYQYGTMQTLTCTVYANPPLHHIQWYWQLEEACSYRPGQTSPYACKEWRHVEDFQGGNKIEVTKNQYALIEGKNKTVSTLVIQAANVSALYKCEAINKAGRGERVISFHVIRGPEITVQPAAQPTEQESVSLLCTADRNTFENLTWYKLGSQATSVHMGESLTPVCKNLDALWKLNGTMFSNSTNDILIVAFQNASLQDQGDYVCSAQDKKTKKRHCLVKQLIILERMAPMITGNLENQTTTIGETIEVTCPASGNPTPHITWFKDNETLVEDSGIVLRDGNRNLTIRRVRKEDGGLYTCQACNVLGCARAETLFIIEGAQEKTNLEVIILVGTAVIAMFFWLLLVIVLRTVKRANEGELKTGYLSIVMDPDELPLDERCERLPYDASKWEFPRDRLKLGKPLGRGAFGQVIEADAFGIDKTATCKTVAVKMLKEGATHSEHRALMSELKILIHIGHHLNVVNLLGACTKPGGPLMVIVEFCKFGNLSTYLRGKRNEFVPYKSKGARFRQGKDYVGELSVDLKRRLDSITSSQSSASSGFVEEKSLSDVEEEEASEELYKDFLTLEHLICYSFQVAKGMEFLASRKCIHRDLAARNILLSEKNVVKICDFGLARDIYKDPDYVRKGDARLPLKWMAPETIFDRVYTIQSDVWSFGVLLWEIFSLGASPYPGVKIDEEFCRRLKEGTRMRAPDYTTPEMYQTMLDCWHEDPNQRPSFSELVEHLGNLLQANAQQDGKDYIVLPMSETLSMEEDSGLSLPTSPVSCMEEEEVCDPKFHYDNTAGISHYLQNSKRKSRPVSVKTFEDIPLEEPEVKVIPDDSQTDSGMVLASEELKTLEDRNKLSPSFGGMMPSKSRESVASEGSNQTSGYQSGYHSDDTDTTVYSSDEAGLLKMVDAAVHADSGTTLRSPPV
Assay type: cell-based
Parameters: Flk Kinase % Inhibition: concentration or dose not given beside the values
`O=C1Nc2ccc(CCCl)cc2C1=Cc1cccc(Br)c1` [10723/G10] was tested, and the “Flk Kinase % Inhibition” value was 3.5%.

Same assay, conditions: Table 2; read-out: FLK Kinase IC50
`Cc1cccc2c1/C(=C/c1cn(C)c3ccccc13)C(=O)N2` was tested, and the IC50 was 7.7 µM.
Work on `Cn1cc(/C=C2\C(=O)Nc3ccccc32)c2ccccc21` yielded an IC50 of 0.7 µM.
With `COc1ccc2[nH]cc(/C=C3\C(=O)Nc4ccccc43)c2c1` the IC50 was 13 µM.

Same assay, conditions: Table 6; read-out: FLK Kinase IC50
Work on `O=C1Nc2ccc(Cl)cc2/C1=C/c1cc2c([nH]1)CCCC2` yielded an IC50 of 5 µM.

Same assay, conditions: Table 8
In the case of `Cc1ccc(/C=C2\C(=O)Nc3ccc(CCC(=O)O)cc32)s1`, the “Activity EC200” value is reported as “ActivityEC200 > 100 μm”.
`Cc1cc(C)c(/C=C2\C(=O)Nc3ccc(C(=O)O)cc32)[nH]1` was tested, and the “Activity EC200” value was “ActivityEC200 = 2.8 μm”.
In the case of `Cc1cc(C)c(/C=C2\C(=O)Nc3ccc(CCC(=O)O)cc32)[nH]1`, the “Activity EC200” value is reported as “ActivityEC200 = 32 μm”.
`CC(C)c1cc(C(C)C)c(/C=C2\C(=O)Nc3ccc(C(=O)O)cc32)[nH]1` was tested, and the “Activity EC200” value was “ActivityEC200 = 10 μm”.
`CCc1cc(CC)c(/C=C2\C(=O)Nc3ccc(C(=O)O)cc32)[nH]1` was tested, and the “Activity EC200” value was “ActivityEC200 = 2.8 μm”.

Same assay, conditions: Table 10; read-out: FLK Kinase IC50
With `Cc1cc(C)c(/C=C2\C(=O)Nc3cccc(C)c32)[nH]1` the IC50 was 7.3 µM.
In the case of `O=C1Nc2ccc(Cl)cc2/C1=C/c1ccc[nH]1`, the IC50 is reported as 1.6 µM.
`Cc1[nH]c(/C=C2\C(=O)Nc3ccc(N)cc32)c(Br)c1Br` showed an IC50 of 1.9 µM.
`COC(=O)CCc1c[nH]c(/C=C2\C(=O)Nc3ccc(Cl)cc32)c1C` showed an IC50 of 5.6 µM.
`O=C1Nc2ccc(Cl)cc2/C1=C/c1c[nH]cn1` gave an IC50 of 5.6 µM.
`Nc1ccc2c(c1)/C(=C/c1ccc(N3CCCC3)cc1)C(=O)N2` was tested, and the IC50 was 18.4 µM.
For `CN(C)CCCOc1ccc(/C=C2\C(=O)Nc3ccccc32)cc1`, the IC50 was 4 µM.
`Cc1cc(C)n(C)c1/C=C1\C(=O)Nc2ccc(N)cc21` gave an IC50 of 1.1 µM.
Work on `CC(C)(C)c1cc(/C=C2\C(=O)Nc3ccc([N+](=O)[O-])cc32)cc([N+](=O)[O-])c1OCc1ccccc1` yielded an IC50 of 16.4 µM.
Work on `COC(=O)CCc1c[nH]c(/C=C2\C(=O)Nc3cccc(C)c32)c1C` yielded an IC50 of 10.8 µM.
`Cc1cccc2c1/C(=C/c1ccc(OCCCN(C)C)cc1)C(=O)N2` was tested, and the IC50 was 8 µM.
With `O=C1Nc2c(Br)cc(Cl)cc2/C1=C/c1cc(O)c(O)c(Br)c1` the IC50 was 8.8 µM.
Compound `Cc1cccc2c1/C(=C/c1cc(C(C)C)c(OCc3ccccc3)c(C(C)C)c1)C(=O)N2` has an IC50 of 19.9 µM.
`CCc1c(C)[nH]c(/C=C2\C(=O)Nc3ccc(N)cc32)c1C` was tested, and the IC50 was 1.5 µM.
For `O=C1Nc2ccccc2/C1=C/c1ccc(N2CCCC2)cc1`, the IC50 was 9.9 µM.
`COC(=O)CCc1c[nH]c(/C=C2\C(=O)Nc3ccccc32)c1C` was tested, and the IC50 was 12.5 µM.
With `CCc1cc(CC)c(/C=C2\C(=O)Nc3cccc(C)c32)[nH]1` the IC50 was 17.3 µM.
With `COc1c(O)ccc(/C=C2\C(=O)Nc3ccc(Cl)cc32)c1[N+](=O)[O-]` the IC50 was 10.7 µM.
`COc1ccc(/C=C2\C(=O)Nc3ccccc32)cc1O` gave an IC50 of 2.9 µM.
